Test system: 242566-281-R-J2-PDC complex spheroid viability
Experiment: Anticancer human tumor 242566-281-R-J2-PDC patient-derived pancreatic carcinoma cell line growth inhibition [RAS]
Conditions: for IC50: curve of first compound; for viability, T/C: stronger effect = lower value
Source text: RAS pathway inhibitors in Combinations in Complex Spheroids
A high-throughput screen of multi-cell type tumor spheroids was designed to identify active combinations of RAS pathway inhibitors and targeted small molecules. Complex spheroids include a stromal component modeled by human endothelial cells (HUVEC) and fibroblasts modeled by human mesenchymal stem cells (MSCs). The concentration ranges selected for each drug and investigational agent were based upon clinically achievable concentrations if the clinical Cmax of the agent was known.
Compounds. The drugs and investigational agents: abemaciclib (NSC768073), cobimetinib (NSC768068), divarasib (GDC6063, NSC841802), docetaxel (NSC628503), GDC-1971 (RLY-1971, NSC841576), gemcitabine (NSC613327), inavolisib (NSC800729), ipatasertib (NSC767898), KB-0742 (NSC834161), MRTX-1133 (NSC836407), osimertinib (NSC779217), RMC-4630 (NSC839698), RMC-6236 (NSC851965), RMC-6291 (NSC852671), Ro-3306 (NSC812927), sapanisertib (NSC764658), SN-38 (NSC673596), staurosporine (NSC755774), SY5609 (NSC837396), and tovorafenib (DAY101, NSC766906), were obtained from the National Cancer Institute (NCI) Developmental Therapeutics Program Chemical Repository. The FDA-approved anticancer drug set is available from the NCI Developmental Therapeutics Program. […] The stock solutions were prepared in dimethyl sulfoxide (DMSO, Sigma-Aldrich, St. Louis, MO, cat. D2650) at 800-fold the tested concentration and stored at -70 degrees C prior to their use. All drugs and investigational agents were tested over a range starting from a high concentration at or near the clinical Cmax and decreasing in half-log increments. If the clinical Cmax for an agent had not been determined, the highest concentration tested was 10 microM.
Cell Culture. All cells were maintained in an incubator at 37 degrees C and 5% CO2 with 95% humidity. The PDC lines were cultured according to standard operating procedures established by the NCI PDMR. All PDCs were thawed and cultured in Matrigel-coated flasks prepared with a working solution of 1X Ham's F-12 nutrient mix, without supplementation (Invitrogen, Waltham, MA, cat. 11765054), 100 U/mL penicillin-streptomycin (Invitrogen, cat. 15140122), and 2.5% Matrigel (Corning Inc., Corning, NY, cat. 354248) for the first three passages. The 362531-283-R-J2-PDC and 782815-120-R-J1-PDC lines were cultured in 6C/Colon 1B media, which includes advanced DMEM/F-12 (Thermo Fisher Scientific, cat. 12634028), 10 mM HEPES (Thermo Fisher Scientific, cat. 15630080), 1X GlutaMAX supplement (Thermo Fisher Scientific, cat. 35050061), 0.1 mg/mL primocin (InvivoGen, San Diego, CA, cat. ant-pm-2), 10% defined fetal bovine serum, heat inactivated (HyClone Laboratories Inc., Logan, UT, cat. SH30070.03HI), 50% L-WRN conditioned media (ATCC, cat. CRL-3276), 1.25 mM N-Acetyl-L-cysteine (Sigma-Aldrich, cat. A9165), 10 mM nicotinamide (Sigma-Aldrich, cat. N0636), 1X B-27 supplement (Thermo Fisher Scientific, cat. 17504044), 1X N-2 supplement (Thermo Fisher Scientific, cat. 17502048), 50 ng/mL human EGF (Thermo Fisher Scientific, cat. PHG0311), and 10 microM Y-27632 dihydrochloride (Tocris Bioscience, cat. 1254). The K12877-001-R-J1-PDC line was cultured in 6I media, which includes all 6C/Colon 1B media plus 10 ng/mL human FGF-10 (PeproTech, cat. 100-26), 1 ng/mL human FGF-2 (PeproTech, cat. 100-18B), 1 µM prostaglandin E2 (Tocris Bioscience, cat. 2296), […] hydrocortisone (Sigma-Aldrich, cat. H4001), and […] bovine insulin (Sigma-Aldrich, cat. I6634). The K86415-001-R-J1-PDC line was cultured in 6D media, which includes all 6C/Colon 1B media components minus the L-WRN conditioned media. The 485176-168-R4-J1-PDC was cultured in PANC media, which includes all 6C/Colon 1B media plus 100 ng/mL human FGF-10 (PeproTech, cat. 100-26), 500 nM SB-431542 (Selleckchem, cat. S1067), and 10 nM gastrin (Tocris Bioscience, cat. 3006). […]

[1] = second compound 0.0316 µM, first compound 0.00316 µM
[2] = second compound 0.0316 µM, first compound 0.01 µM
[3] = second compound 0.0316 µM, first compound 0.0316 µM
[4] = second compound 0.0316 µM, first compound 0.1 µM
[5] = second compound 0.0316 µM, first compound 0.316 µM
[6] = second compound 0.0316 µM, first compound 1 µM
[7] = second compound 0.1 µM, first compound 0.00316 µM
[8] = second compound 0.1 µM, first compound 0.01 µM
[9] = second compound 0.1 µM, first compound 0.0316 µM
[10] = second compound 0.1 µM, first compound 0.1 µM
[11] = second compound 0.1 µM, first compound 0.316 µM
[12] = second compound 0.1 µM, first compound 1 µM
[13] = second compound 0.316 µM, first compound 0.00316 µM
[14] = second compound 0.316 µM, first compound 0.01 µM
[15] = second compound 0.316 µM, first compound 0.0316 µM
[16] = second compound 0.316 µM, first compound 0.1 µM
[17] = second compound 0.316 µM, first compound 0.316 µM
[18] = second compound 0.316 µM, first compound 1 µM
[19] = second compound 1 µM, first compound 0.00316 µM
[20] = second compound 1 µM, first compound 0.01 µM
[21] = second compound 1 µM, first compound 0.0316 µM
[22] = second compound 1 µM, first compound 0.1 µM
[23] = second compound 1 µM, first compound 0.316 µM
[24] = second compound 1 µM, first compound 1 µM
[25] = second compound 3.16 µM, first compound 0.00316 µM
[26] = second compound 3.16 µM, first compound 0.01 µM
[27] = second compound 3.16 µM, first compound 0.0316 µM
[28] = second compound 3.16 µM, first compound 0.1 µM
[29] = second compound 3.16 µM, first compound 0.316 µM
[30] = second compound 3.16 µM, first compound 1 µM
[31] = second compound 10 µM, first compound 0.00316 µM
[32] = second compound 10 µM, first compound 0.01 µM
[33] = second compound 10 µM, first compound 0.0316 µM
[34] = second compound 10 µM, first compound 0.1 µM
[35] = second compound 10 µM, first compound 0.316 µM
[36] = second compound 10 µM, first compound 1 µM
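Further: spheroids exposed to compound for 7 days before readout.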
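Wherever viability, T/C is given: 100% = DMSO vehicle control wells.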

## C=CC(=O)Nc1cc(Nc2nccc(-c3cn(C)c4ccccc34)n2)c(OC)cc1N(C)CCN(C)C + C#Cc1c(F)ccc2cc(O)cc(-c3ncc4c(N5CC6CCC(C5)N6)nc(OCC56CCCN5CC(F)C6)nc4c3F)c12
Second compound 0.0316 µM
  IC50: 114 nM
Second compound 0.1 µM
  IC50: 70.8 nM
Second compound 0.316 µM
  IC50: 88.1 nM
Second compound 1 µM
  IC50: 25.2 nM
Second compound 3.16 µM
  IC50: 22.2 nM
Second compound 10 µM
  IC50: 16.1 nM
[1]
  viability, T/C: 81.2%
[2]
  viability, T/C: 115%
[3]
  viability, T/C: 80.8%
[4]
  viability, T/C: 52.9%
[5]
  viability, T/C: 43.1%
[6]
  viability, T/C: 37.9%
[7]
  viability, T/C: 80.3%
[8]
  viability, T/C: 85.2%
[9]
  viability, T/C: 60.7%
[10]
  viability, T/C: 46.9%
[11]
  viability, T/C: 41.3%
[12]
  viability, T/C: 35.2%
[13]
  viability, T/C: 77.6%
[14]
  viability, T/C: 75.2%
[15]
  viability, T/C: 66%
[16]
  viability, T/C: 47.1%
[17]
  viability, T/C: 40.7%
[18]
  viability, T/C: 35.3%
[19]
  viability, T/C: 68.3%
[20]
  viability, T/C: 60.2%
[21]
  viability, T/C: 46.7%
[22]
  viability, T/C: 42.1%
[23]
  viability, T/C: 36.4%
[24]
  viability, T/C: 38.5%
[25]
  viability, T/C: 60.2%
[26]
  viability, T/C: 58.6%
[27]
  viability, T/C: 48%
[28]
  viability, T/C: 41%
[29]
  viability, T/C: 36.1%
[30]
  viability, T/C: 37.7%
[31]
  viability, T/C: 57.1%
[32]
  viability, T/C: 57.1%
[33]
  viability, T/C: 44.6%
[34]
  viability, T/C: 40.1%
[35]
  viability, T/C: 39.8%
[36]
  viability, T/C: 36.7%

## O=C(c1ccc(F)c(F)c1Nc1ccc(I)cc1F)N1CC(O)([C@@H]2CCCCN2)C1 + C#Cc1c(F)ccc2cc(O)cc(-c3ncc4c(N5CC6CCC(C5)N6)nc(OCC56CCCN5CC(F)C6)nc4c3F)c12
Second compound 0.0316 µM
  IC50: 83.3 nM
Second compound 0.1 µM
  IC50: 56 nM
Second compound 0.316 µM
  IC50: 25.2 nM
Second compound 1 µM
  IC50: 8.45 nM
Second compound 3.16 µM
  IC50: 4.18 nM
Second compound 10 µM
  IC50: < 3.16 nM
[1]
  viability, T/C: 89.3%
[2]
  viability, T/C: 90.4%
[3]
  viability, T/C: 69.1%
[4]
  viability, T/C: 47.9%
[5]
  viability, T/C: 38.6%
[6]
  viability, T/C: 44.2%
[7]
  viability, T/C: 76.1%
[8]
  viability, T/C: 73.6%
[9]
  viability, T/C: 57.7%
[10]
  viability, T/C: 42%
[11]
  viability, T/C: 40.9%
[12]
  viability, T/C: 38.5%
[13]
  viability, T/C: 73%
[14]
  viability, T/C: 59.7%
[15]
  viability, T/C: 49.9%
[16]
  viability, T/C: 37.3%
[17]
  viability, T/C: 32.2%
[18]
  viability, T/C: 39.9%
[19]
  viability, T/C: 60.1%
[20]
  viability, T/C: 49.5%
[21]
  viability, T/C: 44.8%
[22]
  viability, T/C: 30.4%
[23]
  viability, T/C: 35.1%
[24]
  viability, T/C: 38.6%
[25]
  viability, T/C: 50.8%
[26]
  viability, T/C: 48.6%
[27]
  viability, T/C: 34%
[28]
  viability, T/C: 29.4%
[29]
  viability, T/C: 34.9%
[30]
  viability, T/C: 38.2%
[31]
  viability, T/C: 52.6%
[32]
  viability, T/C: 41.3%
[33]
  viability, T/C: 34.1%
[34]
  viability, T/C: 37%
[35]
  viability, T/C: 36.8%
[36]
  viability, T/C: 37.5%

From PubChem BioAssay AID2060910 (Molecular Pharmacology Branch, DTP, NCI, 2025)
